The values that follow are results of earlier work, collected in article PMC2840068 (Vision research, 2009).

The test system of data set [1] is VEGF. To be noted: clinical trials in AMD patients; ref Gragoudas et al., 2004.
Data set [2] deals with VEGF. The settings on record: ref Chang et al., 2007, Rosenfeld et al., 2006.

On to pegaptanib, for which, in data set [1], the therapeutic dose response entry is on record as “inverse therapeutic dose response”.

B1: ranibizumab: anti-VEGF antibody (ranibizumab) (antibody, chains of the INN, looked up, V domains shown)
VH: EVQLVESGGGLVQPGGSLRLSCAASGYDFTHYGMNWVRQAPGKGLEWVGWINTYTGEPTYAADFKRRFTFSLDTSKSTAYLQMNSLRAEDTAVYYCAKYPYYYGTSHWYFDVWGQGTLVTVSS
VL: DIQLTQSPSSLSASVGDRVTITCSASQDISNYLNWYQQKPGKAPKVLIYFTSSLHSGVPSRFSGSGSGTDFTLTISSLQPEDFATYYCQQYSTVPWTFGQGTKVEIK
For B1, the “AMD patients’ vision” value in data set [2] was “improvement of AMD patients’ vision”.
